The values that follow are results of earlier work, collected in patent US7947313B2, “Compositions for diabetes treatment and prophylaxis” (Ayurvedic-Life International, LLC, priority 2003, dated 2011).

One data set has as its system rat chorda tympani nerve. To be noted: stimuli such as glucose, sucrose, glycine and saccharine; Fletcher et al. 1999.
The conditions of data set [1]: Fletcher et al. 1999.

Regarding gurmarin, the “response of the rat chorda tympani nerve to sweet taste stimuli” value in the data set with rat chorda tympani nerve is recorded as “suppressing the response”. The effect in humans entry in data set [1] is “no apparent effect”.
